Measurements taken from patent US20240156790A1, “COMPOUNDS, COMPOSITIONS, AND METHODS FOR MODULATING FERROPTOSIS AND TREATING EXCITOTOXIC DISORDERS” (THE TRUSTEES OF COLUMBIA UNIVERSITY IN THE CITY OF NEW YORK, priority 2018, published 2024).

Experiments:
[1] = Microsomal stability, dog (Table 1); type: in vitro ADME; settings: Dog: Beagle
Description: Each compound (1 μM) is incubated with mouse plasma, for 4 hours at 37° C., with shaking at 100 rpm. The concentration of compound in the buffer and plasma chambers is determined using LC-MS/MS. Metabolism of each compound is predicted using Sites of Metabolism (Schrodinger Suite), which combines intrinsic reactivity analysis (Hammett-Taft) with induced fit docking against 2C9, 2D6 and 3A4. This approach identifies 90% of known metabolism sites and has a false positive rate of 17%. The in vitro metabolic stability of each compound in mouse liver microsomes is determined. Pooled mouse liver microsomes are prepared and stored at −80° C. until needed. Compound stability in liver microsomes is measured at 0, 15, 30, 45 and 60 minutes in duplicate, using LC-MS/MS analysis.

HT-1080 cells = assay: Rescue activity of selected Fer-1 analogs, dose-response in HT-1080 cells (cell titer glo); type: cell-based
Description: Selected Fer-1 analogs containing a pyridine moiety (FIG. 4) were tested to examine their efficacy and overall potency in inhibiting ferroptosis. For each of these compounds, dose-response curves were generated in HT-1080 cells looking at the effectiveness of the molecules in inhibiting ferroptosis induced by either 3 μM IKE or 0.2 μM RSL3, Fer-1 was used as a positive control. For each dose-response curve, 1,000 cells/well were seeded in a 384 well plate and allowed to adhere overnight prior to treating with compound from a daughter plate. Cells were treated for 48 hours, unless otherwise noted, prior to viability being analyzed using cell titer glo (40 μL per well). All liquid handling was performed using the BioMek. All samples were prepared in triplicate, unless otherwise noted.

[2] = TH-2-31 IP PK Study, 40 mg/kg; type: in vivo, C57BL/6 mice; settings: 40 mg/kg IP, up to eight hours
Description: C57BL/6 mice (8-weeks of age and ˜25 g weight) were weighed before injection and divided into groups of 2 male and female mice per cage. TH-2-31 was dissolved in 5% DMSO/95% of 65% v/v of 25% w/v 2-hydroxypropyl-3-cyclodextrin (Cayman Chemical) dissolved in 20% EtOH, 30% v/v Poly(ethylene glycol)-400 (Sigma Aldrich 202398), 5% v/v Tween 80 (Fluka 59924) to create a 4 mg/mL solution. The same formulation without TH-2-31 was used as a vehicle control. The solution was sterilized using a […] Steriflip filter unit (Thomas Scientific 1189Q46). Mice were dosed IP and euthanized by CO2 asphyxiation for 3 min at 0, 1, 2, 4, and 8 h after administration. To ensure that the vehicle was well-tolerated 4 mice were treated with vehicle and euthanized 4 h after administration. ˜0.5 mL of blood was collected via cardiac puncture and immediately put in K3 EDTA microtubes ([…] 41.1504.105) and kept on ice. Organs were harvested, placed in Eppendorf tubes, and frozen on dry ice. Blood samples were centrifuged for 10 min at 2,100×g at 4° C., then plasma was transferred to a clean tube and frozen on dry ice. […] After drying, the samples were resuspended in 100 μL of methanol and analyzed by UPLC-MS described below. The concentration of TH-2-31 was determined against a standard curve with a linear fit and the data plot in GraphPad Prism 9 and fit with a one phase decay. […]

SMILES	Microsomal Stability, % remaining t = 120 [1] [%]	death observed with RSL3 (HT-1080 cells; 0.2 μM RSL3, inhibitor range 10 μM-0 μM)	rescue against IKE and erastin (HT-1080 cells; inhibitor 1 μM-0 μM, 3 μM IKE, 10 μM erastin, 48 hours) [%]	accumulation in plasma and brain, in words [2]
CCOC(=O)c1ccc(NC2CCCCC2)c(N)c1 [Fer-1, Ferrostatin-1, reference compound]	49.5 ± 9.6	No death was observed	~50	–
Cc1noc(-c2cnc(NC3CCCCC3)c(NC3CCCCC3)c2)n1 [TH-2-31, N^2,N^3-dicyclohexyl-5-(3-methyl-1,2,4-oxadiazol-5-yl)pyridine-2,3-diamine]	–	–	–	stably accumulate at micromolar concentrations in plasma and brain even eight hours after
